# ChEMBL document CHEMBL1121811, “Synthesis and biological evaluation of certain 2'-deoxy-beta-D-ribo- and -beta-D-arabinofuranosyl nucleosides of purine-6-carboxamide and 4,8-diaminopyrimido[5,4-d]pyrimidine” (1981)
# Key:
# [1] = test system: Mus musculus; experiment: Compound was tested for the ability to suppress humoral immune response in mice treated for days 0,+1,and +2 at dose of 25 mg/kg (control = 7.0); format: functional
# [2] = test system: Mus musculus; experiment: Effect of compound on induction of cellular immunity was studied at different dose of 50 mg/kg. (control = 12+/-0.21); format: functional
# [3] = test system: Mus musculus; experiment: Compound was tested for the ability to suppress humoral immune response in mice treated for days 0,+1,and +2 at dose of 100 mg/kg (control = 10.0)
# [4] = test system: Mus musculus; experiment: Compound was tested for the ability to suppress humoral immune response in mice treated for days -2,-1,and 0 at dose of 100 mg/kg (control = 9.5); format: functional
# [5] = test system: Mus musculus; experiment: Compound was tested for the ability to suppress skin-graft rejection in mice treated daily from day of graft transfer until rejection at dose of 100 mg/kg (control = 12+/-0.21)
# [6] = test system: Mus musculus; experiment: Compound was tested for the ability to suppress skin-graft rejection in mice treated daily from day of graft transfer until rejection at dose of 75 mg/kg (control = 12+/-0.21)
# [7] = test system: Mus musculus; experiment: Effect of compound on induction of cellular immunity was studied at different dose of 15 mg/kg (control = 12+/-0.2); format: functional
# [8] = test system: Mus musculus; experiment: Compound was tested for the ability to suppress humoral immune response in mice treated for days -2,-1,and 0 at dose of 25 mg/kg (control = 9.5); format: functional
# [9] = test system: Mus musculus; experiment: Compound was tested for the ability to suppress humoral immune response in mice treated for days -2,-1,and 0 at dose of 50 mg/kg (control = 10.3); format: functional
# [10] = test system: Mus musculus; experiment: Compound was tested for the ability to suppress humoral immune response in mice treated for days 0,+1,and +2 at dose of 180 mg/kg (control = 9.0); format: functional
# [11] = test system: Mus musculus; experiment: Compound was tested for the ability to suppress humoral immune response in mice treated for days 0,+1,and +2 at dose of 180 mg/kg (control = 9.1); format: functional
# [12] = test system: Mus musculus; experiment: Compound was tested for the ability to suppress humoral immune response in mice treated for days 0,+1,and +2 at dose of 100 mg/kg (control = 9.0); format: functional
# [13] = test system: Mus musculus; experiment: Compound was tested for the ability to suppress humoral immune response in mice treated for days -2,-1,and 0 at dose of 50 mg/kg (control = 8.1); format: functional
# [14] = test system: Mus musculus; experiment: Compound was tested for the ability to suppress humoral immune response in mice treated for days 0,+1,and +2 at dose of 100 mg/kg (control = 6.5); format: functional
# [15] = test system: Mus musculus; experiment: Compound was tested for the ability to suppress humoral immune response in mice treated for days 0,+1,and +2 at dose of 50 mg/kg (control = 6.5); format: functional
# [16] = test system: Mus musculus; experiment: Compound was tested for the ability to suppress humoral immune response in mice treated for days 0,+1,and +2 at dose of 50 mg/kg (control = 9.0); format: functional
# [17] = test system: Mus musculus; experiment: Compound was tested for the ability to suppress humoral immune response in mice treated for days -2,-1,and 0 at dose of 100 mg/kg (control = 8.1); format: functional
# [18] = test system: Mus musculus; experiment: Compound was tested for the ability to suppress humoral immune response in mice treated for days -2,-1,and 0 at dose of 100 mg/kg (control = 10.3); format: functional
# [19] = test system: Mus musculus; experiment: Compound was tested for the ability to suppress humoral immune response in mice treated for days 0,+1,and +2 at dose of 25 mg/kg (control = 8.9)
# [20] = test system: Mus musculus; experiment: Compound was tested for the ability to suppress humoral immune response in mice treated for days 0,+1,and +2 at dose of 100 mg/kg (control = 8.9); format: functional
# [21] = test system: Mus musculus; experiment: Compound was tested for the ability to suppress humoral immune response in mice treated for days 0,+1,and +2 at dose of 50 mg/kg (control = 8.9); format: functional
smiles,measurement,setting,value
Nc1ccn([C@@H]2O[C@H](CO)[C@@H](O)[C@@H]2O)c(=O)n1 [CYTARABINE],Mean hemagglutination titers,[1],3.4
Nc1ncnc2c(N[C@@H]3O[C@H](CO)[C@@H](O)[C@@H]3O)ncnc12,mean survival time,[2],14
same,Mean hemagglutination titers,[3],11
same,Mean hemagglutination titers,[4],8.7
same,mean survival time,[5],16
same,mean survival time,[6],13
Nc1ncnc2c(N[C@@H]3O[C@H](CO)[C@@H](O)[C@H]3O)ncnc12,mean survival time,[7],21
same,Mean hemagglutination titers,[1],0
same,Mean hemagglutination titers,[8],8.5
OC[C@H]1O[C@@H](n2cnc3c(S)ncnc32)[C@H](O)[C@@H]1O [THIOINOSINE],Mean hemagglutination titers,[9],8.3
same,Mean hemagglutination titers,[10],6.4
same,Mean hemagglutination titers,[11],8.7
same,Mean hemagglutination titers,[12],7.4
same,Mean hemagglutination titers,[13],8.5
same,Mean hemagglutination titers,[14],7.2
same,Mean hemagglutination titers,[15],7.2
same,Mean hemagglutination titers,[16],9.1
same,Mean hemagglutination titers,[17],8.4
same,Mean hemagglutination titers,[18],8.3
Sc1ncnc2nc[nH]c12 [MERCAPTOPURINE ANHYDROUS],Mean hemagglutination titers,[13],7.5
same,Mean hemagglutination titers,[19],7.5
same,Mean hemagglutination titers,[20],4.1
same,Mean hemagglutination titers,[21],7.2
same,Mean hemagglutination titers,[17],3.4
